In ChEMBL document CHEMBL1201861, “Genomics of Drug Sensitity in Cancer screening data, Wellcome Trust Sanger Institute”:
pIC50: −log10 of the molar value. “And” between values parts separate entries of the source, which are not always exact repeats. Identical values can stand only once. Where a SMILES comes first, the peptide text is derived from it. The star is where a group is joined. Cbz = O=C(OCc1ccccc1)*

What was measured:
CP66-MEL = assay: cells; assay type: functional, cell-based; details: Homo sapiens;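 also: growth inhibition of CP66-MEL cells determined in a cell viability assay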
Description: SANGER: Inhibition of human CP66-MEL cell growth in a cell viability assay.

CPC-N = assay: cells; assay type: functional, cell-based, Homo sapiens;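 also: growth inhibition of CPC-N cells, with a cell viability assay as the readout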
Description: SANGER: Inhibition of human CPC-N cell growth in a cell viability assay.

DMS-79 = assay: cells; assay type: functional, cell-based, Homo sapiens
Description: SANGER: Inhibition of human DMS-79 cell growth in a cell viability assay.

HCC 2998 = assay: cells; assay type: functional, cell-based; details: Homo sapiens;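 also: growth inhibition of human HCC2998 cells, measured with a cell viability read-out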
Description: SANGER: Inhibition of human HCC2998 cell growth in a cell viability assay.

HuTu80 = assay: cells; assay type: functional, cell-based, Homo sapiens, HUTU-80;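 also: growth inhibition of HuTu80 human cells, determined with a cell viability readout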
Description: SANGER: Inhibition of human HUTU-80 cell growth in a cell viability assay.

IM-9 = assay: SANGER: Inhibition of human IM-9 cell growth in a cell viability assay.; assay type: functional, cell-based
IST-SL2 = assay: cells; assay type: functional, cell-based, Homo sapiens;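 also: growth inhibition of human IST-SL2 cells, read out by a cell viability assay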
Description: SANGER: Inhibition of human IST-SL2 cell growth in a cell viability assay.

L-540 = assay: cells; assay type: functional, cell-based, Homo sapiens;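 also: growth inhibition of the human L-540 cell line, read out with a viability assay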
Description: SANGER: Inhibition of human L-540 cell growth in a cell viability assay.

LOUCY = assay: cells; assay type: functional, cell-based, Homo sapiens;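 also: growth inhibition of human LOUCY cells, read out with a cell viability assay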
Description: SANGER: Inhibition of human LOUCY cell growth in a cell viability assay.

NB14 = assay: cells; assay type: functional, cell-based, Homo sapiens;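 also: growth inhibition of NB14 cells measured with a cell viability assay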
Description: SANGER: Inhibition of human NB14 cell growth in a cell viability assay.

NB7 = assay: cells; assay type: functional, cell-based, Homo sapiens;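 also: growth inhibition of NB7 cells, read out with a cell viability assay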
Description: SANGER: Inhibition of human NB7 cell growth in a cell viability assay.

NCI-H1436 = assay: cells; assay type: functional, cell-based, Homo sapiens;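 also: growth suppression of human NCI-H1436 cells, determined with a cell viability readout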
Description: SANGER: Inhibition of human NCI-H1436 cell growth in a cell viability assay.

NCI-H187 = assay: cells; assay type: functional, cell-based, Homo sapiens;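 also: growth inhibition of NCI-H187 cells, read out as cell viability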
Description: SANGER: Inhibition of human NCI-H187 cell growth in a cell viability assay.

NCI-H2141 = assay: cells; assay type: functional, cell-based, Homo sapiens;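 also: growth inhibition of human NCI-H2141 cells, read out with a cell viability assay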
Description: SANGER: Inhibition of human NCI-H2141 cell growth in a cell viability assay.

NCI-H719 = assay: cells; assay type: functional, cell-based, Homo sapiens;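 also: growth inhibition of the cultured cell line, read out with a viability assay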
Description: SANGER: Inhibition of human NCI-H719 cell growth in a cell viability assay.

SNU-16 = assay: cells; assay type: functional, cell-based, Homo sapiens;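 also: growth inhibition of human SNU-16 cells, determined with a cell viability readout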
Description: SANGER: Inhibition of human NCI-SNU-16 cell growth in a cell viability assay.

OPM-2 = assay: cells; assay type: functional, cell-based, Homo sapiens;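 also: growth of OPM-2 cells measured with a viability assay, IC50 for suppression of proliferation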
Description: SANGER: Inhibition of human OPM-2 cell growth in a cell viability assay.

SUP-T1 = assay: cells; assay type: functional, cell-based, Homo sapiens;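 also: growth inhibition of human SUP-T1 cells, read out as cell viability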
Description: SANGER: Inhibition of human SUP-T1 cell growth in a cell viability assay.

UACC-812 = assay: cells; assay type: functional, cell-based; details: Homo sapiens
Description: SANGER: Inhibition of human UACC-812 cell growth in a cell viability assay.

| SMILES | pIC50 (CP66-MEL) | pIC50 (CPC-N; Homo sapiens, CPC-N) | pIC50 (DMS-79; Homo sapiens, DMS-79) | pIC50 (HCC 2998) | pIC50 (HuTu80; Homo sapiens, HuTu80) | pIC50 (IM-9; Homo sapiens, IM-9) | pIC50 (IST-SL2; Homo sapiens, IST-SL2) | pIC50 (L-540; Homo sapiens, L-540) | pIC50 (LOUCY; Homo sapiens, LOUCY) | pIC50 (NB14; Homo sapiens, NB14) | pIC50 (NB7; Homo sapiens, NB7) | pIC50 (NCI-H1436; Homo sapiens, NCI-H1436) | pIC50 (NCI-H187; Homo sapiens, NCI-H187) | pIC50 (NCI-H2141; Homo sapiens, NCI-H2141) | pIC50 (NCI-H719; Homo sapiens, NCI-H719) | pIC50 (SNU-16; Homo sapiens, SNU-16) | pIC50 (OPM-2; Homo sapiens, OPM-2) | pIC50 (SUP-T1; Homo sapiens, SUP-T1) | pIC50 (UACC-812) | also measured |
| --- | --- | --- | --- | --- | --- | --- | --- | --- | --- | --- | --- | --- | --- | --- | --- | --- | --- | --- | --- | --- |
| Nc1ccccc1NC(=O)c1ccc(CNC(=O)OCc2cccnc2)cc1 [ENTINOSTAT] | 5.61 | 6.09 | 5.59 | 6.11 | 5.75 | < 5.30 | 5.70 | 5.96 | 6.20 | 6.14 | < 5.30 | 5.38 | 6.31 | 5.50 | 5.93 | < 5.30 | 6.38 | < 5.30 | < 5.30 | – |
| COc1cc(N2CCC(N3CCN(C)CC3)CC2)ccc1Nc1ncc(Cl)c(Nc2ccccc2S(=O)(=O)C(C)C)n1 [TAE-684] | < 5.70 | 5.73 | < 5.70 | – | 6.32 | < 5.70 | < 5.70 | 6.43 | < 5.70 | 6.36 | < 5.70 | < 5.70 | 5.77 | < 5.70 | < 5.70 | 6.14 | 6.64 | < 5.70 | < 5.70 | – |
| CC(C)C[C@@H](C=O)NC(=O)[C@H](CC(C)C)NC(=O)[C@H](CC(C)C)NC(=O)OCc1ccccc1 [MG-132] (Cbz-Leu-Leu-Leu-aldehyde) | – | – | – | 6.03 | < 6.00 | – | – | – | – | – | – | < 6.00 | – | – | – | < 6.00 | – | < 6.00 | < 6.00 | pIC50 (CPC-N; cpc-n): < 6.00; pIC50 (DMS-79; dms-79): < 6.00; pIC50 (HuTu80; hutu-80): < 6.00; pIC50 (IM-9; im-9): < 6.00; pIC50 (IST-SL2; ist-sl2): < 6.00; pIC50 (L-540; l-540): < 6.00; pIC50 (LOUCY; loucy): 6.59 and < 6.00; pIC50 (NB14; nb14): < 6.00; pIC50 (NB7; nb7): < 6.00; pIC50 (NCI-H1436; nci-h1436): < 6.00; pIC50 (NCI-H187; nci-h187): < 6.00; pIC50 (NCI-H2141; nci-h2141): < 6.00; pIC50 (NCI-H719; nci-h719): < 6.00; pIC50 (SNU-16; snu-16): < 6.00; pIC50 (OPM-2; opm-2): 6.98 and 6.12; pIC50 (SUP-T1; sup-t1): < 6.00 |
| Cc1ccc(NC(=O)c2ccc(CN3CCN(C)CC3)cc2)cc1Nc1nccc(-c2cccnc2)n1 [IMATINIB] | < 5.70 | < 5.70 | < 5.70 | – | < 5.70 | < 5.70 | < 5.70 | < 5.70 | < 5.70 | < 5.70 | < 5.70 | 6.01 | < 5.70 | < 5.70 | < 5.70 | < 5.70 | < 5.70 | < 5.70 | < 5.70 | – |
